Assay results published in patent US20110212853A1, “NOVEL DIAGNOSTIC METHOD” (PROBIODRUG AG, priority 2010, published 2011).

Columns and labels:
[1] = test system: Normal Human Dermal Fibroblasts (NHDF); test: hMCP-1 N1pE/hMCP-1 ratio by ELISA in OSM+IL1β stimulated NHDF treated with QCI; assay type: cell-based; conditions: 10 μM QCI
Method: To capture human MCP-1, commercially available polyclonal antiserum goat anti-hMCP1-AF (R&D Systems, Minneapolis, USA) as capture antibody which specifically binds human MCP-1 was diluted in PBS to 250 ng/ml and immobilized in polystyrene 96-well microtitre plates overnight at 4° C. Thereafter, blocking occurred for 2 hours at room temperature with ELISA Blocker (Thermo Fisher Scientific, Waltham, USA). For preparation of the standard curve recombinant hMCP-1 was incubated with recombinant human Glutaminyl Cyclase (QC) in order to obtain hMCP-1 N1pE. The recombinant hMCP-1 N1pE standard peptide was serially diluted with ELISA Blocker from 1000 pg/ml down to 15.63 pg/ml and added to the wells in duplicate. Two wells filled with ELISA Blocker represent the standard curve value 0 pg/ml. After an incubation period of 2 hours at room temperature, plates were washed at least three times with TBS-T. For detection of hMCP-1 N1pE, the MCP-1 N1pE antibody clone 348-2C9 together with HRP-conjugated anti mouse antibody were both diluted in blocking buffer to final concentrations of 500 ng/ml. For detection of hMCP-1, the antibody mouse anti hMCP-1 (Peprotech, Hamburg, Germany) together with HRP-conjugated anti mouse antibody were also both diluted in blocking buffer to final concentrations of 500 ng/ml. The detection antibody/conjugate solutions were incubated for 2 hours at room temperature. […] Absorption at 450/540 nm was determined by a Tecan Sunrise plate reader.
Quantitative detection of hMCP-1 and hMCP-1 N1pE occurred according to the protocol in […]. […] The cell culture supernatants were analyzed at different time points in order to examine time dependency of hMCP-1 and hMCP-1 N1pE secretion. […]
NHDF have been stimulated with 10 ng/ml OSM, IL1β and simultaneously treated with or without 10 μM QCI for 6 days. […] In order to examine the influence of QCI on hMCP-1 and hMCP-1 N1pE level, the cell culture supernatants were analyzed at different time points according to the ELISA protocol in Example 7.

RAW 264.7 cells = test: mMCP-1 N1pE/mMCP-1 ratio by ELISA in LPS stimulated RAW 264.7 treated with QCI; assay type: cell-based, mouse; conditions: RAW 264.7, 10 ng/ml LPS, 24 h, different QCI concentrations
Method: To capture mouse MCP-1, commercially available polyclonal antiserum rabbit anti mJE (Peprotech, Hamburg, Germany) as capture antibody which specifically binds mouse MCP-1 was diluted in PBS to 500 ng/ml and immobilized in polystyrene 96-well microtitre plates over 4-7 nights at 4° C. Thereafter, blocking occurred for 2 hours at room temperature with ELISA Blocker (Thermo Fisher Scientific, Waltham, USA). For preparation of the standard curve recombinant mMCP-1 was incubated with mouse Glutaminyl Cyclase (QC) in order to obtain mMCP-1 N1pE. The recombinant mMCP-1 N1pE standard peptide was serially diluted with ELISA Blocker from 1950 pg/ml down to 19.5 pg/ml and added to the wells in duplicate. Two wells filled with ELISA Blocker represent the standard curve value 0 pg/ml. After an incubation period of 2 hours at room temperature, plates were washed at least three times with TBS-T. For detection of mMCP-1 N1pE, the MCP-1 N1pE antibody clone 348-2C9 together with HRP-conjugated anti mouse antibody were both diluted in ELISA Blocker to final concentrations of 500 ng/ml. […] Absorption at 450/540 nm was determined by a Tecan Sunrise plate reader.
In order to analyse the effect of QCI on the ratio of mouse MCP-1 N1pE/mouse MCP-1, the mouse macrophage cell line RAW 264.7 was stimulated with LPS in the absence or presence of increasing concentrations of the QC inhibitor QCI. […] After 24 h cell culture supernatants were analyzed according to the protocol in Example 9. […]

A549 cells = test: hMCP-1 N1pE/hMCP-1 ratio by ELISA in TNFα+IL1β stimulated A549 treated with QCI; assay type: cell-based, human; conditions: 24 h, different QCI concentrations
Method: To capture human MCP-1, commercially available polyclonal antiserum goat anti-hMCP1-AF (R&D Systems, Minneapolis, USA) as capture antibody which specifically binds human MCP-1 was diluted in PBS to 250 ng/ml and immobilized in polystyrene 96-well microtitre plates overnight at 4° C. Thereafter, blocking occurred for 2 hours at room temperature with ELISA Blocker (Thermo Fisher Scientific, Waltham, USA). For preparation of the standard curve recombinant hMCP-1 was incubated with recombinant human Glutaminyl Cyclase (QC) in order to obtain hMCP-1 N1pE. The recombinant hMCP-1 N1pE standard peptide was serially diluted with ELISA Blocker from 1000 pg/ml down to 15.63 pg/ml and added to the wells in duplicate. Two wells filled with ELISA Blocker represent the standard curve value 0 pg/ml. After an incubation period of 2 hours at room temperature, plates were washed at least three times with TBS-T. For detection of hMCP-1 N1pE, the MCP-1 N1pE antibody clone 348-2C9 together with HRP-conjugated anti mouse antibody were both diluted in blocking buffer to final concentrations of 500 ng/ml. For detection of hMCP-1, the antibody mouse anti hMCP-1 (Peprotech, Hamburg, Germany) together with HRP-conjugated anti mouse antibody were also both diluted in blocking buffer to final concentrations of 500 ng/ml. The detection antibody/conjugate solutions were incubated for 2 hours at room temperature. Following several washes with TBS-T a colour reaction with commercially available HRP substrate TMB (SureBlue Reserve TMB Microwell Peroxidase Substrate (1-component), KPL, Gaithersburg, USA) was performed (30 minutes incubation at room temperature in the dark) and subsequently stopped by the addition of 1,2N H2SO4. Absorption at 450/540 nm was determined by a Tecan Sunrise plate reader.
A549 cells were stimulated for 24 h with 10 ng/ml TNFα and IL1β. Furthermore, QCI was applied in different concentrations to the cells. After 24 h cell culture supernatants were analyzed according to the protocol in Example 7.

`COc1ccc(NC(=S)NCCCn2ccnc2)cc1OC.Cl` [QCI, 1-(3-(1H-imidazol-1-yl)propyl)-3-(3,4-dimethoxyphenyl)thiourea hydrochloride] was tested, and the “hMCP-1 N1pE level after 1-2 days of OSM+IL1β stimulation” value ([1]; 1-2 days) was “below the limit of quantitation”, the “hMCP-1 N1pE level” value ([1]; OSM+IL1β) was “decreased” and the “ratio of hMCP-1 N1pE/hMCP-1” value ([1]; OSM+IL1β) was “about 0,35”. The “amount of mMCP-1 N1pE” value (RAW 264.7 cells) was “reduced by QCI in a concentration dependent manner”, the “amount of total mMCP-1” value (RAW 264.7 cells) was “remains unaffected” and the “ratio of mMCP-1 N1pE/mMCP-1” value (RAW 264.7 cells) was “decreases with increasing inhibitor concentrations”. For the same molecule, the “amount of hMCP-1 N1pE” value (A549 cells) was “reduced by QCI in a concentration dependent manner”, the “amount of total hMCP-1” value (A549 cells) was “nearly unaffected” and the “ratio of hMCP-1 N1pE/hMCP-1” value (A549 cells) was “decreases with increasing inhibitor concentrations”.
